Results as given in PubChem BioAssay AID1259407 (Chemical Carcinogenesis Research Information System (CCRIS), 2018).
Active and inactive are the calls of the source. No rule for the calls is given here.

Test system: CCRIS mutagenicity, Ames/micronucleus/aberration tests
Assay: CCRIS mutagenicity studies
[1] = Test System: AMES SALMONELLA TYPHIMURIUM, Strain/Indicator: TA98, Metabolic Activation: NONE, Method: STANDARD PLATE
[2] = Test System: AMES SALMONELLA TYPHIMURIUM, Strain/Indicator: TA100, Metabolic Activation: NONE, Method: STANDARD PLATE
[3] = Test System: AMES SALMONELLA TYPHIMURIUM, Strain/Indicator: TA100, Metabolic Activation: RAT, LIVER, S-9, AROCLOR 1254, Method: STANDARD PLATE

## CC[C@H](C)[C@@H]1NC(=O)[C@H](CCCNC(=N)N)NC(=O)[C@H](CC(=O)O)NC(=O)[C@H](CCSC)NC(=O)[C@H](CCCNC(=N)N)NC(=O)CNC(=O)CNC(=O)[C@H](Cc2ccccc2)NC(=O)[C@@H](NC(=O)[C@H](CO)NC(=O)[C@H](CO)NC(=O)[C@H](CCCNC(=N)N)NC(=O)[C@H](CCCNC(=N)N)NC(=O)[C@H](CC(C)C)NC(=O)[C@@H](N)CO)CSSC[C@@H](C(=O)N[C@@H](CC(N)=O)C(=O)N[C@@H](CO)C(=O)N[C@@H](Cc2ccccc2)C(=O)N[C@@H](CCCNC(=N)N)C(=O)N[C@@H](Cc2ccc(O)cc2)C(=O)O)NC(=O)CNC(=O)[C@H](CC(C)C)NC(=O)CNC(=O)[C@H](CO)NC(=O)[C@H](CCC(N)=O)NC(=O)[C@H](C)NC(=O)CNC1=O
Test System: AMES SALMONELLA TYPHIMURIUM, Strain/Indicator: TA98, Metabolic Activation: NONE, Method: PREINCUBATION
  mutagenic call: inactive; negative
Test System: AMES SALMONELLA TYPHIMURIUM, Strain/Indicator: TA98, Metabolic Activation: S-9, Method: PREINCUBATION
  mutagenic call: inactive; negative
Test System: AMES SALMONELLA TYPHIMURIUM, Strain/Indicator: TA100, Metabolic Activation: NONE, Method: PREINCUBATION
  mutagenic call: inactive; negative
Test System: AMES SALMONELLA TYPHIMURIUM, Strain/Indicator: TA100, Metabolic Activation: S-9, Method: PREINCUBATION
  mutagenic call: inactive; negative
Test System: AMES SALMONELLA TYPHIMURIUM, Strain/Indicator: TA1535, Metabolic Activation: NONE, Method: PREINCUBATION
  mutagenic call: inactive; negative
Test System: AMES SALMONELLA TYPHIMURIUM, Strain/Indicator: TA1535, Metabolic Activation: S-9, Method: PREINCUBATION
  mutagenic call: inactive; negative
Test System: AMES SALMONELLA TYPHIMURIUM, Strain/Indicator: TA1537, Metabolic Activation: NONE, Method: PREINCUBATION
  mutagenic call: inactive; negative
Test System: AMES SALMONELLA TYPHIMURIUM, Strain/Indicator: TA1537, Metabolic Activation: S-9, Method: PREINCUBATION
  mutagenic call: inactive; negative
Test System: E. COLI, Strain/Indicator: WP2 UVRA, Metabolic Activation: NONE, Method: PREINCUBATION
  mutagenic call: inactive; negative
Test System: E. COLI, Strain/Indicator: WP2 UVRA, Metabolic Activation: S-9, Method: PREINCUBATION
  mutagenic call: inactive; negative

## BrCc1ccc2c(c1)-c1cccc3cccc-2c13
[1]
  mutagenic call: active; positive
[2]
  mutagenic call: active; positive

## CN1C(=O)CN=C(c2ccccc2F)c2cc([N+](=O)[O-])ccc21
[2]
  mutagenic call: active; positive
[3]
  mutagenic call: active; positive

## O=C([O-])/C=C/C(=O)[O-].[Fe+2]
Test System: AMES SALMONELLA TYPHIMURIUM, Strain/Indicator: TA98, Metabolic Activation: HAMSTER, LIVER, S-9, AROCLOR 1254, Method: STANDARD PLATE
  mutagenic call: active; positive
[1]
  mutagenic call: inactive; negative
Test System: AMES SALMONELLA TYPHIMURIUM, Strain/Indicator: TA98, Metabolic Activation: RAT, LIVER, S-9, AROCLOR 1254, Method: STANDARD PLATE
  mutagenic call: active; positive
Test System: AMES SALMONELLA TYPHIMURIUM, Strain/Indicator: TA100, Metabolic Activation: HAMSTER, LIVER, S-9, AROCLOR 1254, Method: STANDARD PLATE
  mutagenic call: inactive; negative
[2]
  mutagenic call: inactive; negative
[3]
  mutagenic call: inactive; negative
Test System: AMES SALMONELLA TYPHIMURIUM, Strain/Indicator: TA102, Metabolic Activation: HAMSTER, LIVER, S-9, AROCLOR 1254, Method: STANDARD PLATE
  mutagenic call: inactive; negative
Test System: AMES SALMONELLA TYPHIMURIUM, Strain/Indicator: TA102, Metabolic Activation: NONE, Method: PREINCUBATION
  mutagenic call: inactive; negative
Test System: AMES SALMONELLA TYPHIMURIUM, Strain/Indicator: TA102, Metabolic Activation: NONE, Method: STANDARD PLATE
  mutagenic call: inactive; negative
Test System: AMES SALMONELLA TYPHIMURIUM, Strain/Indicator: TA102, Metabolic Activation: RAT, LIVER, S-9, AROCLOR 1254, Method: STANDARD PLATE
  mutagenic call: inactive; negative
Test System: MOUSE LYMPHOMA, Strain/Indicator: L5178Y (TK+/TK-), Metabolic Activation: NONE, Method: SUSPENSION/PLATE
  mutagenic call: active; positive. reevaluation of results: positive
Test System: MOUSE LYMPHOMA, Strain/Indicator: L5178Y (TK+/TK-), Metabolic Activation: RAT, LIVER, S-9, AROCLOR 1254, Method: SUSPENSION/PLATE
  mutagenic call: inactive; negative. reevaluation of results: negative

## CN(C)CCNC(=O)c1cccn2cc(-c3ccccc3)nc12
Test System: AMES SALMONELLA TYPHIMURIUM, Strain/Indicator: TA1537, Metabolic Activation: NONE, Method: STANDARD PLATE
  mutagenic call: active; positive

## C[As](C)O
End Point: IN VITRO CHROMOSOMAL ABERRATIONS, Test System: CHINESE HAMSTER V79 CELLS, Metabolic Activation: NONE
  mutagenic call: active; positive (structural and ploidy changes)
